# Measurements published in PMC11124387, “A Reliable Multifaceted Solution against Foodborne Viral Infections: The Case of RiLK1 Decapeptide” (Molecules, 2024).
# Several values for one entry are separate records, joined by “and”; a condition that tells them apart may be missing. Equal entries are not always repeated. Where two headings read alike, the source gives them in different places.
# What was measured:
# Format in all cases: cell-based
# [1] = tested on: Hepatitis A virus (HAV) strain HM-175; assay: Virucidal effect of peptides on HAV (residual infectivity by TCID50 titration on Frp3 cells); conditions: 1 h at 4 °C, mean ± SD, triplicate; for Viral Titre after Treatment: titration on Frp3 cells; for LRV (log reduction value): untreated minus treated titre
# [2] = tested on: Murine norovirus strain 1 (MNV-1); conditions: for Viral Titre after Treatment: titration on RAW 264.7 cells; for Viral Titre after Treatment / LRV (log reduction value): mean ± SD, triplicate
# [3] = tested on: Hepatitis A virus (HAV) strain HM-175; assay: Virus pre-treatment assay, HAV; conditions: virus pre-treatment: peptide 80 µM with virus 1 h at RT, mean ± SD
# Method: (§1) Four sets of experiments were performed to suppose the effect of RiLK1 and RiLK3 on HAV and MNV-1 [29]. To this aim, 80 µM solutions of the two peptides and HAV and MNV-1 suspensions at a final concentration of 4.7 ± 0.2 log TCID50/mL and 4.5 ± 0.2 log TCID50/mL, respectively, were used in the following experiments: • i) A virus pre-treatment assay to assess the direct interaction between the virus and peptide: the incubation of the peptide with viral suspension for 1 h at room temperature was carried out, followed by its incubation on cells for 1 h at 37 °C. Then, cell monolayers were washed twice with PBS and incubated with 500 µL DMEM/MEM supplemented with 2% of FBS to determine the TCID50/mL. • ii) A cell pre-treatment assay to assess the interaction between the peptide and cells before the viral infection: cell monolayers were preincubated with 100 µL of peptide solution for 1 h at 37 °C, followed by the removal of the peptide, addition to cells of viral suspensions for 1 h at 37 °C, washing step, and culture with 2% FBS DMEM/MEM. • iii) An attachment assay to assess the possible action of the peptide at the stage of virus attachment to cells: cell monolayers were incubated with 100 µL of a suspension containing both the peptide and virus and were incubated for 1 h at 4 °C. […]
# (§2) For each treatment, the average and standard deviation of the triplicate analyses were calculated. The virucidal effects of AMPs was assessed by calculating the log reduction value (LRV), i.e., the difference between the infectious titer (log-transformed) of untreated versus treated samples. The statistical significance of differences between treated and untreated samples was determined through one-way analysis of variance (ANOVA) with Bonferroni post hoc comparisons, with a significance level of p < 0.05 (GraphPad Prism v9.5.0, software San Diego, CA, USA).
# [4] = tested on: Hepatitis A virus (HAV) strain HM-175; assay: Cell pre-treatment assay, HAV; conditions: cell pre-treatment: cells with peptide 80 µM 1 h 37 °C, peptide removed, then virus 1 h 37 °C, mean ± SD
# Method: (§3) Four sets of experiments were performed to suppose the effect of RiLK1 and RiLK3 on HAV and MNV-1 [29]. To this aim, 80 µM solutions of the two peptides and HAV and MNV-1 suspensions at a final concentration of 4.7 ± 0.2 log TCID50/mL and 4.5 ± 0.2 log TCID50/mL, respectively, were used in the following experiments: • i) A virus pre-treatment assay to assess the direct interaction between the virus and peptide: the incubation of the peptide with viral suspension for 1 h at room temperature was carried out, followed by its incubation on cells for 1 h at 37 °C. Then, cell monolayers were washed twice with PBS and incubated with 500 µL DMEM/MEM supplemented with 2% of FBS to determine the TCID50/mL. • ii) A cell pre-treatment assay to assess the interaction between the peptide and cells before the viral infection: cell monolayers were preincubated with 100 µL of peptide solution for 1 h at 37 °C, followed by the removal of the peptide, addition to cells of viral suspensions for 1 h at 37 °C, washing step, and culture with 2% FBS DMEM/MEM. • iii) An attachment assay to assess the possible action of the peptide at the stage of virus attachment to cells: cell monolayers were incubated with 100 µL of a suspension containing both the peptide and virus and were incubated for 1 h at 4 °C. Subsequently, the cell monolayers were washed with PBS and incubated for 1 h at 37 °C with a culture medium followed by a washing step and the addition of culture with 2% FBS DMEM/MEM. • iv) An entry assay to assess the possible action of the peptide at the stage of virus internalization into cells: cell monolayers were incubated with 100 µL of the viral suspension for 1 h at 4 °C, followed by the addition of the peptide and incubation for 1 h at 37 °C. Cells were then washed with PBS, and 2% FBS DMEM/MEM was finally added.
# (§4) Untreated viral suspensions and peptide solutions, incubated at the same conditions, were used as controls.
# as §2
# [5] = tested on: Hepatitis A virus (HAV) strain HM-175; assay: Attachment assay, HAV; conditions: attachment: cells with peptide 80 µM and virus together 1 h at 4 °C, mean ± SD
# Method: as §3, §4, §2
# [6] = tested on: Hepatitis A virus (HAV) strain HM-175; assay: Entry assay, HAV; conditions: entry: cells with virus 1 h at 4 °C, then peptide 80 µM 1 h 37 °C, mean ± SD
# Method: as §3, §4, §2
# [7] = tested on: Murine norovirus strain 1 (MNV-1); assay: Virus pre-treatment assay, MNV-1; conditions: virus pre-treatment: peptide 80 µM with virus 1 h at RT, mean ± SD
# Method: as §1, §2
# [8] = tested on: Murine norovirus strain 1 (MNV-1); assay: Attachment assay, MNV-1; conditions: attachment: cells with peptide 80 µM and virus together 1 h at 4 °C, mean ± SD
# Method: as §3, §4, §2
# [9] = MNV-1 + peptide 40 µM, 1 h at 4 °C
# [10] = MNV-1 + peptide 40 µM, 1 h at RT (20 ± 2 °C)
# [11] = MNV-1 + peptide 80 µM, 1 h at RT (20 ± 2 °C)
substance,measurement,setting,value
"RLRWVRIWRR-NH2 [RiLK3, RiLK1 analog differing by one amino acid (Lys replaced with Arg), C-terminally amidated]",Viral Titre after Treatment,[1]; HAV 4.7 ± 0.2 log TCID50/mL + peptide 80 µM,4.6 ± 0.1 logTCID50/mL
same,Viral Titre after Treatment,[1]; HAV + peptide 40 µM,4.6 ± 0.3 logTCID50/mL
same,LRV (log reduction value),[1]; HAV + peptide 40 µM,0.1 ± 0.2 logTCID50/mL
same,LRV (log reduction value),[1]; HAV + peptide 80 µM,0.1 ± 0.3 logTCID50/mL
same,virucidal activity toward MNV-1 (in words),"[2]; 40 and 80 µM, 4 °C and RT",not effective
same,Viral Titre after Treatment,"[2]; MNV-1 4.5 ± 0.2 log TCID50/mL + peptide 80 µM, 1 h at 4 °C",4.5 ± 0.2 logTCID50/mL
same,LRV (log reduction value),[2]; [9],0 ± 0.3 logTCID50/mL
same,Viral Titre after Treatment,[2]; [9],4.5 ± 0.1 logTCID50/mL
same,LRV (log reduction value),[2]; [10],0 ± 0.4 logTCID50/mL
same,Viral Titre after Treatment,[2]; [10],4.5 ± 0.2 logTCID50/mL
same,LRV (log reduction value),"[2]; MNV-1 + peptide 80 µM, 1 h at 4 °C",0 ± 0.4 logTCID50/mL
same,LRV (log reduction value),[2]; [11],0 ± 0.3 logTCID50/mL
same,Viral Titre after Treatment,[2]; [11],4.5 ± 0.1 logTCID50/mL
same,Viral Titre,[3]; then on Frp3 cells 1 h 37 °C,4.4 ± 0.1 logTCID50/mL
same,LRV,[3]; then on cells 1 h 37 °C,0.3 ± 0.3 logTCID50/mL
same,LRV,[4],0.9 logTCID50/mL and 0.9 ± 0.4 logTCID50/mL
same,Viral Titre,[4],3.8 ± 0.2 logTCID50/mL
same,LRV,[5],1.0 logTCID50/mL and 1.0 ± 0.4 logTCID50/mL
same,Viral Titre,[5],3.7 ± 0.2 logTCID50/mL
same,LRV,[6],0.5 ± 0.4 logTCID50/mL
same,Viral Titre,[6],4.2 ± 0.2 logTCID50/mL
same,Viral Titre,[7]; then on RAW 264.7 cells 1 h 37 °C,4.5 ± 0.1 logTCID50/mL
same,LRV,[7]; then on cells 1 h 37 °C,0 ± 0.3 logTCID50/mL
same,LRV,[8],1.0 logTCID50/mL and 1.0 ± 0.3 logTCID50/mL
same,Viral Titre,[8],3.5 ± 0.1 logTCID50/mL
